Results from paper PMC12494099, “Discovery and Characterization of Novel IKZF1/3 Glue Degraders against Multiple Hematological Cancer Cell Lines” (Oncology Research, 2025).
Like-named read-outs stand apart in the source and are kept apart here.

Tests used:
[1] = Pharmacokinetic study in vivo; set-up: species or system BALB/c mice; details: mice; for MRT inf: read-out: MRT0-inf
Experimental: BALB/c mice weighing 19–21 g were procured from Beijing Vital River Laboratory Animal Technology Co., Ltd. (Beijing, China). The animals were housed under conditions of constant temperature and humidity, with a 12-h light-dark cycle for lighting. The mice had free access to water and food but were fasted for 12 h before intragastric administration. This study has been approved by the Animal Care and Use Committee Ethics Committee of the National Beijing Center for Drug Safety Evaluation and Research; the approval number is IACUC-DWZX-2024-P557.
Six male BALB/c mice were randomly assigned to two groups, with three mice in each group. MGD-C9 was administered via intravenous (i.v., 2 mg/kg in a solution of 10% DMSO, 2% Tween 80% and 88% H2O) and oral (p.o., 50 mg/kg in the same vehicle) routes to assess its pharmacokinetic (PK) characteristics. Blood samples (0.05 mL) were collected into heparinized tubes at pre-dose and at 0, 0.0833-, 0.25-, 0.5-, 1-, 2-, 4-, 6-, 8-, and 24 h post-administration. Plasma samples were obtained by centrifuging the blood for 10 min.
The plasma supernatant was then stored at −80°C and thawed at room temperature for subsequent analysis. For preparation, 10 μL of plasma was mixed with 10 μL working solution, followed by protein precipitation with 50 μL acetonitrile containing propranolol hydrochloride internal standard (50 ng/mL). After vortexing (1 min) and centrifugation (18,800× g, 10 min, 4°C), the supernatant was collected, diluted two-fold with 50% acetonitrile/water (v/v), and mixed. MGD-C9 plasma concentrations were quantified by LC-MS/MS using Analyst 1.5.1 (Applied Biosystem, Shanghai, China).
Automated peak integration was performed for atlas samples. The peak area ratio (sample/internal standard) was used for concentration regression analysis, applying linear regression with 1/X^2 weighting. Pharmacokinetic parameters (AUC, t1/2, MRT) across administration routes, and Cmax/Tmax after oral dosing, were calculated via non-compartmental analysis using WinNonlin v6.3 (Pharsight, Lawrenceville, GA, USA).
Experimental data were presented as “Mean ± SD” (n = 3).

IKZF2 = IKZF2 (Homo sapiens, UniProt Q9UKS7); assay: MS-based quantitative proteomics in NCI-H929 cells; assay type: cell-based; set-up: endogenous in cells; host or cells: NCI-H929; details: NCI-H929, 10 μM, 4 h; not notably downregulated
Sequence of IKZF2 (Q96SW2 whole entry partner): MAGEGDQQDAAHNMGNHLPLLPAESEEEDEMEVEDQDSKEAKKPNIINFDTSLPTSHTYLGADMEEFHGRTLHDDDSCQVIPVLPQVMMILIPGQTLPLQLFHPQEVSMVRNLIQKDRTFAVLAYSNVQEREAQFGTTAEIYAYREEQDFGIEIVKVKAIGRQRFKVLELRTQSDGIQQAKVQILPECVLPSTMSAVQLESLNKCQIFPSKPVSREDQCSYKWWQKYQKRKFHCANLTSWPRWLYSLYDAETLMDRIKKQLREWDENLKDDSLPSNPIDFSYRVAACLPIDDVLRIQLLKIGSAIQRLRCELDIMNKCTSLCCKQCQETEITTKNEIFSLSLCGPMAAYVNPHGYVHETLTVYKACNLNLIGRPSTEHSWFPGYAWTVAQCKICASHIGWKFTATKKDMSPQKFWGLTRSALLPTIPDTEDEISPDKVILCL
Sequence of IKZF2 (Q16531 whole entry partner): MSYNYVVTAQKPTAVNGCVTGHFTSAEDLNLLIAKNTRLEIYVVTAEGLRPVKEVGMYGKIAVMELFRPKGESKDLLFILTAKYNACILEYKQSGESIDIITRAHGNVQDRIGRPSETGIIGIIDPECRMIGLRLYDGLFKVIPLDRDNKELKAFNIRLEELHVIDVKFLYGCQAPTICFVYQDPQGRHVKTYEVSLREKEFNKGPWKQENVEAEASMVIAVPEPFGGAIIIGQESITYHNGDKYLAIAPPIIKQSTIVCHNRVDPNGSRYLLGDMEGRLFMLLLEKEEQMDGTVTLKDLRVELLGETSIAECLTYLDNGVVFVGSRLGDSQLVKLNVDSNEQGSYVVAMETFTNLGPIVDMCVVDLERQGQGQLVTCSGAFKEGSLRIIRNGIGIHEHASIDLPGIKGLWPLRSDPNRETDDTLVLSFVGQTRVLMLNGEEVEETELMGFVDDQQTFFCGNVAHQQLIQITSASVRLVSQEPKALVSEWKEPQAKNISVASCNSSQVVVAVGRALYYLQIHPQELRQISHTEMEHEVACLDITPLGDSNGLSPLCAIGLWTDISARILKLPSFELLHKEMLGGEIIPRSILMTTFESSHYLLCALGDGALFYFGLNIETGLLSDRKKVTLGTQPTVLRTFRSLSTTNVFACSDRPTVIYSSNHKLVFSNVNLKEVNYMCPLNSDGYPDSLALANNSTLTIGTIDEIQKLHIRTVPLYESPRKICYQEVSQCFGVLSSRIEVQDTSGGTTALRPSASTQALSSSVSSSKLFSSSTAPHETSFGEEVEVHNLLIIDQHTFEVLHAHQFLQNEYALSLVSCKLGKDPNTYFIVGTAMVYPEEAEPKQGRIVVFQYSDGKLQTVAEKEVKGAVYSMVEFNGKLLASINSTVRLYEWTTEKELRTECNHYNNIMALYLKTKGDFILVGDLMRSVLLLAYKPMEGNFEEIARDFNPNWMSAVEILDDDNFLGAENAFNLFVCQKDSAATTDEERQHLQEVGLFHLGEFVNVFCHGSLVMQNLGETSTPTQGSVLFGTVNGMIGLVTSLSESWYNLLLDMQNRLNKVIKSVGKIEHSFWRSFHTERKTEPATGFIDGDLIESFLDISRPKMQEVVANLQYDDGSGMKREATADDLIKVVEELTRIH
Sequence of IKZF2 (Q9UKS7 whole entry): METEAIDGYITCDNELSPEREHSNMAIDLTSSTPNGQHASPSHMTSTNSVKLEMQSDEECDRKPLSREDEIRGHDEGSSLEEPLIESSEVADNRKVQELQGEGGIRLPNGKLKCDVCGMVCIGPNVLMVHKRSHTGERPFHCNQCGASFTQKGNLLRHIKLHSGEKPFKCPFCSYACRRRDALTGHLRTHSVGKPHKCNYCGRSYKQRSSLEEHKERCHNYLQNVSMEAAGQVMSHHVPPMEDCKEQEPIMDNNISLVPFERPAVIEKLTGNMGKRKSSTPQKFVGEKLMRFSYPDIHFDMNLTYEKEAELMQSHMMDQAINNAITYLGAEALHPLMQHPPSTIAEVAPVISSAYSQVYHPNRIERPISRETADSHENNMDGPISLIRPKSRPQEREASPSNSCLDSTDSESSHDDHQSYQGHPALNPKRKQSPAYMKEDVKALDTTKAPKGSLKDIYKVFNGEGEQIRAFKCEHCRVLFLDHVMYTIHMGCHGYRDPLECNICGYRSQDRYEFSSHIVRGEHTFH
Experimental: NCI-H929 cells were treated with either 10 μM DMSO or 10 μM MGD-C9 for 4 h. Post-treatment, the cells were washed with PBS (pH = 7.2–7.4, 1×) and then lysed in 8M Urea (UA) (comprising 8M urea, 100 mM Tris-HCl, pH = 8.0). Subsequently, the cell lysate was subjected to centrifugation on a high-speed freezing microcentrifuge (#CF1524R; SCILOGEX, Meriden, CT, USA) at […], and the supernatant was collected. Subsequently, the collected supernatant was treated with 10 mM tris (2-carboxyethyl) phosphine hydrochloride (TCEP) to reduce it for 30 min. Following this, cysteine alkylation was performed using 50 mM 2-chloroacetamide (CAA) for an additional 30 min. The denatured proteins were then digested with trypsin (1 μg/μL) at an enzyme-to-protein ratio of 1:50 and incubated at 37°C overnight. […]
The peptide mixtures were analyzed using an EASY-nLC 1200 liquid chromatography system (Thermo Fisher Scientific, WLM, MA, USA) equipped with a custom-made 15 cm C18 column (150 μm ID, 1.9 μm particle size, 100 Å pore size). […] The peptide mixtures were then analyzed using a Q Exactive HF mass spectrometer (Thermo Fisher Scientific). […]
Label-free MS raw data were processed using MaxQuant (v2.4) against the UniProt Human database (https://www.uniprot.org/, downloaded May 2024; 20,434 entries). […] Protein groups output by MaxQuant were further analyzed in R (v4.2.1). […]

SALL4 = biological target: T1, SALL4 (Homo sapiens, UniProt Q9UJQ4); assay: MS-based quantitative proteomics in NCI-H929 cells; assay type: cell-based; details: NCI-H929, 10 µM
T1 construct: endogenous in cells; host or cells: NCI-H929
T1 sequence (Q96SW2 whole entry partner): as the sequence (Q96SW2 whole entry partner) above
T1 sequence (Q16531 whole entry partner): as the sequence (Q16531 whole entry partner) above
T1 sequence (Q9UJQ4 whole entry): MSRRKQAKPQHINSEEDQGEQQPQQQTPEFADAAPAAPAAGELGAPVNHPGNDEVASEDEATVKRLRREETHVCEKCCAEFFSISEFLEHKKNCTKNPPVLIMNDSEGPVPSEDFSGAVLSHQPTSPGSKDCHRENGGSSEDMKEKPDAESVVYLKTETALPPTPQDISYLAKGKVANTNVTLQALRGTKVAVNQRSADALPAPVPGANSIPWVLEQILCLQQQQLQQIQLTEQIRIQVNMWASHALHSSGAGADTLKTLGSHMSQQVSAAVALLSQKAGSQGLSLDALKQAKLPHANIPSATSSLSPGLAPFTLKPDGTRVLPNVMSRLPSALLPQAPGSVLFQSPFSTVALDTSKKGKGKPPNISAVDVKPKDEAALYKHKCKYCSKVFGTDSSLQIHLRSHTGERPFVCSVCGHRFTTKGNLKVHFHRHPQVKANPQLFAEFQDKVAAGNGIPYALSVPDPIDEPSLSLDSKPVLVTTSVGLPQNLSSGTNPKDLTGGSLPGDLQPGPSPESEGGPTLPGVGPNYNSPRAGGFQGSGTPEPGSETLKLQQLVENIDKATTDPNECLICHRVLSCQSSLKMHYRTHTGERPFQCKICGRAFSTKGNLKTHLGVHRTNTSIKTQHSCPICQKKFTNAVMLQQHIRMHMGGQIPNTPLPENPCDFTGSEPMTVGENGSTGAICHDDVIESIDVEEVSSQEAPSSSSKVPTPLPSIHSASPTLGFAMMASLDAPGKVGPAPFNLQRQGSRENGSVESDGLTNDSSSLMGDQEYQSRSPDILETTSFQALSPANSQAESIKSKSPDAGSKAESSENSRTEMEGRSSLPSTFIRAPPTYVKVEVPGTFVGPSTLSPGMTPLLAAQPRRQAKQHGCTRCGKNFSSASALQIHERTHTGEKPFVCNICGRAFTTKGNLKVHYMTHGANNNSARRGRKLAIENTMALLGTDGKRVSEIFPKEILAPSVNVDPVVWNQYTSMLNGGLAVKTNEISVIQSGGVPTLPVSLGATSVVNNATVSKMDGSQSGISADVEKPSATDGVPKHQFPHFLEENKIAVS
Experimental: (§1) NCI-H929 cells were treated with either 10 μM DMSO or 10 μM MGD-C9 for 4 h. Post-treatment, the cells were washed with PBS (pH = 7.2–7.4, 1×) and then lysed in 8M Urea (UA) (comprising 8M urea, 100 mM Tris-HCl, pH = 8.0). Subsequently, the cell lysate was subjected to centrifugation on a high-speed freezing microcentrifuge (#CF1524R; SCILOGEX, Meriden, CT, USA) at […], and the supernatant was collected. Subsequently, the collected supernatant was treated with 10 mM tris (2-carboxyethyl) phosphine hydrochloride (TCEP) to reduce it for 30 min. Following this, cysteine alkylation was performed using 50 mM 2-chloroacetamide (CAA) for an additional 30 min. The denatured proteins were then digested with trypsin (1 μg/μL) at an enzyme-to-protein ratio of 1:50 and incubated at 37°C overnight. The reaction was stopped by adding 0.1% formic acid (FA). The samples were desalted using 100 μL pipette tips packed with C18 discs (3M, Saint Paul, MN, USA). Prior to sample loading, the tips were conditioned sequentially with 80 μL of acetonitrile (ACN), followed by 80 μL of a 1:1 (v/v) mixture of H2O and ACN, and finally with 80 μL of H2O. The conditioned tips were loaded with peptides. Then, they were washed twice with 80 μL of H2O. After that, the peptides were eluted twice using 80 μL of a solution composed of 50% water and 50% acetonitrile (ACN). The resulting eluates were vacuum-dried and then reconstituted in 0.1% formic acid for the subsequent LC-MS/MS analysis.
(§2) The peptide mixtures were analyzed using an EASY-nLC 1200 liquid chromatography system (Thermo Fisher Scientific, WLM, MA, USA) equipped with a custom-made 15 cm C18 column (150 μm ID, 1.9 μm particle size, 100 Å pore size). Peptide separation was performed over a 75-min gradient at a constant flow rate of 600 nL/min. The gradient profile was as follows: 4%–7% buffer B (1 min), 7%–13% buffer B (6 min), 13%–25% buffer B (38 min), 25%–45% buffer B (22 min), 45%–95% buffer B (1 min), followed 95% buffer B (7-min). The buffers used were Buffer A (0.1% formic acid) and Buffer B (0.1% formic acid in 80% acetonitrile). The peptide mixtures were then analyzed using a Q Exactive HF mass spectrometer (Thermo Fisher Scientific). MS data were acquired in data-dependent acquisition (DDA) mode with a dynamic exclusion duration of 15 s. MS1 scans were acquired in positive-ion mode across a mass-to-charge (m/z) range of 300–1400, with a resolution of 120,000 (at m/z 200) and a maximum injection time of 50 ms. Precursor ions were fragmented using higher-energy collision dissociation (HCD) at 27% normalized collision energy. MS2 spectra were collected with an AGC target of 5.0 × 10^4 and a maximum injection time of 20 ms.
(§3) Label-free MS raw data were processed using MaxQuant (v2.4) against the UniProt Human database (https://www.uniprot.org/, downloaded May 2024; 20,434 entries). A strict false discovery rate (FDR) threshold of ≤0.01 was applied at the spectra, protein, and modification levels. Contaminants and reverse database hits were excluded. Default settings were used for all other parameters. Protein groups output by MaxQuant were further analyzed in R (v4.2.1). Student’s t-test, and p-values < 0.01 were considered statistically significant for statistical analyses and a volcano plot was generated with GraphPad Prism 8.0.

IKZF4 = biological target: T2, IKZF4 (Homo sapiens, UniProt Q9H2S9); assay: MS-based quantitative proteomics in NCI-H929 cells; assay type: cell-based; details: NCI-H929, 10 μM, 4 h; not notably downregulated
T2 construct: endogenous in cells; host or cells: NCI-H929
T2 sequence (Q96SW2 whole entry partner): as the sequence (Q96SW2 whole entry partner) above
T2 sequence (Q16531 whole entry partner): as the sequence (Q16531 whole entry partner) above
T2 sequence (Q9H2S9 whole entry): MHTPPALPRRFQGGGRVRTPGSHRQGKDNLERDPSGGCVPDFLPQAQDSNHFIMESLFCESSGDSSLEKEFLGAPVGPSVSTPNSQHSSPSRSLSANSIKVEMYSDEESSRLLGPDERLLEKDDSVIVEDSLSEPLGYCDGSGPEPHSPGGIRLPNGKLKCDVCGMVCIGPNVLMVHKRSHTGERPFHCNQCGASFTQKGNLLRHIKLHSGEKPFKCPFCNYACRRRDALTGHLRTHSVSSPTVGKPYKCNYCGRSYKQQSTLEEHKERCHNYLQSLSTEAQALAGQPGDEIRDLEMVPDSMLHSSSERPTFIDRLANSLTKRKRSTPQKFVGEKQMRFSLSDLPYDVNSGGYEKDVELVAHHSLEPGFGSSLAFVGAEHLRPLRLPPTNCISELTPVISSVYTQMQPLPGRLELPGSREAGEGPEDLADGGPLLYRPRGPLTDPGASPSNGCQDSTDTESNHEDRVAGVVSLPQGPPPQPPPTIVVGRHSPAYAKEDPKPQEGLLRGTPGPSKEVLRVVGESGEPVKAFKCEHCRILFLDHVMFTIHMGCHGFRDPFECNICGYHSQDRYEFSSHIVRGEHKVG
Experimental: as §1, §2, §3

[2] = male, BALB/c, mouse, plasma, iv, 2 mg/kg
[3] = male, BALB/c, mouse, plasma, po, 50 mg/kg

AUC(0-inf) [1, 2]: 1360 ± 190 ng·h/mL | Cmax [1, 2]: 3690 ± 713 ng/mL | half-life [1, 2]: 12 ± 4.2 min | MRT inf ([1]; male, BALB/c, mouse, plasma, iv, i.v., 2 mg/kg): 15.6 ± 7.2 min | Vd ([1]; male, BALB/c, mouse, plasma, iv, i.v., 2 mg/kg, read-out: Vz): 0.42 ± 0.14 L/kg | bioavailability ([1]; male, BALB/c, mouse, plasma, oral, p.o. 50 mg/kg vs i.v. 2 mg/kg, read-out: F (oral bioavailability)): 33.5% | Tmax [1, 3]: ~30 min | AUC(0-inf) [1, 3]: 11400 ± 553 ng·h/mL | Cmax [1, 3]: 5590 ± 222 ng/mL | half-life [1, 3]: 53.4 ± 13.8 min | MRT inf ([1]; male, BALB/c, mouse, plasma, po, p.o., 50 mg/kg): 90.6 ± 10.2 min | Vz ([1]; p.o., 50 mg/kg): 5.62 ± 1.23 L/kg | absolute [log2(fold change)] of IKZF2 (IKZF2): less than 1 | SALL4 level (proteomics) (SALL4): remained unaffected | absolute [log2(fold change)] of IKZF4 (IKZF4): less than 1
Structure (SMILES): CN1CCN(Cc2cccc(C(=O)NC3CCC(=O)NC3=O)c2F)C(=O)C1 (stereo not drawn) [MGD-C9, N-(2,6-dioxopiperidin-3-yl)-2-fluoro-3-((4-methyl-2-oxopiperazin-1-yl)methyl)benzamide]
